Reference: patent US20260226068A1, “IMIDAZOTRIAZINE IL-17A MODULATORS AND USES THEREOF” (DICE ALPHA, INC., priority 2023, published 2026)

Tests used:
IL-17A/A = molecular target: T1, IL-17A/A (Homo sapiens, UniProt Q16552); test: IL-17A/A HEK-Blue cell assay (SEAP reporter); format: cell-based; details: HEK-Blue IL-17A reporter cells, IL17A/A 5 ng/mL, 20 hours, SEAP read at A630; read-out: HEK-Blue IL17AA (IC50 for IL-17A/A inhibition)
T1 construct: purchased Genscript Z03228
T1 sequence (Q16552 24-155): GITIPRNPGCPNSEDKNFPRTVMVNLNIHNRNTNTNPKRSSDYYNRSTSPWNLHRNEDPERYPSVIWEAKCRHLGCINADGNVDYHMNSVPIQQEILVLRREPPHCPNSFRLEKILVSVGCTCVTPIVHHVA

IL-17A/F = molecular target: T2, IL-17A/F (Homo sapiens, UniProt Q16552+Q96PD4); test: IL-17A/F HEK-Blue cell assay (SEAP reporter); format: cell-based; details: HEK-Blue IL-17A reporter cells, IL17A/F 5 ng/mL, 20 hours, SEAP read at A630; read-out: HEK-Blue IL17AF (IC50 for IL-17A/F inhibition)
T2 construct: purchased R&D Systems
T2 sequence (Q16552 24-155): T1 sequence (Q16552 24-155)
T2 sequence (Q96PD4 31-163): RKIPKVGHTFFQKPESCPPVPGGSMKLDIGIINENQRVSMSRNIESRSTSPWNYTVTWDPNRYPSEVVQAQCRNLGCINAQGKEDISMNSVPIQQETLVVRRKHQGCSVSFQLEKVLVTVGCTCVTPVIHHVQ

SMILES | IC50 (IL-17A/A) [nM] | IC50 (IL-17A/F) [nM]
CCc1nonc1C(=O)N[C@H](c1cn2nc(C[C@H]3C[C@@H](C(F)(F)F)CNC3=O)c(C3CCOCC3)nc2n1)[C@H]1C[C@H]2C[C@H]2C1 [Compound 317, N—((S)-((1R,3r,5S)-bicyclo[3.1.0]hexan-3-yl)(2-(((3R,5R)-2-oxo-5-(trifluoromethyl)piperidin-3-yl)methyl)-3-(tetrahydro-2H-pyran-4-yl)imidazo[1,2-b][1,2,4]triazin-6-yl)methyl)-4-ethyl-1,2,5-oxadiazole-3-carboxamide] | 100 to 1000 | > 1000
Cc1nonc1C(=O)N[C@H](c1cn2nc(C[C@H]3C[C@@H](C(F)(F)F)CNC3=O)c(C3CCOCC3)nc2n1)[C@H]1C[C@H](C2CC2)C1 [Compound 318, N—((S)-((1r,3S)-3-cyclopropylcyclobutyl)(2-(((3R,5R)-2-oxo-5-(trifluoromethyl)piperidin-3-yl)methyl)-3-(tetrahydro-2H-pyran-4-yl)imidazo[1,2-b][1,2,4]triazin-6-yl)methyl)-4-methyl-1,2,5-oxadiazole-3-carboxamide] | < 100 | > 1000
CCc1nonc1C(=O)N[C@H](c1cn2nc(C[C@H]3C[C@@H](C(F)(F)F)CNC3=O)c(C3CCOCC3)nc2n1)[C@H]1C[C@H](C2CC2)C1 [Compound 319, N—((S)-((1r,3S)-3-cyclopropylcyclobutyl)(2-(((3R,5R)-2-oxo-5-(trifluoromethyl)piperidin-3-yl)methyl)-3-(tetrahydro-2H-pyran-4-yl)imidazo[1,2-b][1,2,4]triazin-6-yl)methyl)-4-ethyl-1,2,5-oxadiazole-3-carboxamide] | < 100 | > 1000
Cn1nccc1C(=O)N[C@H](c1cn2nc(C[C@H]3C[C@@H](C(F)(F)F)CNC3=O)c(C3CCOCC3)nc2n1)C(C1CC1)C1CC1 [Compound 320, N—((S)-2,2-dicyclopropyl-1-(2-(((3R,5R)-2-oxo-5-(trifluoromethyl)piperidin-3-yl)methyl)-3-(tetrahydro-2H-pyran-4-yl)imidazo[1,2-b][1,2,4]triazin-6-yl)ethyl)-1-methyl-1H-pyrazole-5-carboxamide] | < 100 | 100 to 1000
CCn1nccc1C(=O)N[C@H](c1cn2nc(C[C@H]3CC(F)(F)CNC3=O)c(C3CCOCC3)nc2n1)C(C1CC1)C1CC1 [Compound 323] | < 100 | > 1000
CCn1nccc1C(=O)N[C@H](c1cn2nc(C[C@H]3C[C@@H](C(F)(F)F)CNC3=O)c(N3CCOCC3)nc2n1)C1CCCCC1 [Compound 326, N—((S)-cyclohexyl(3-morpholino-2-(((3R,5R)-2-oxo-5-(trifluoromethyl)piperidin-3-yl)methyl)imidazo[1,2-b][1,2,4]triazin-6-yl)methyl)-1-ethyl-1H-pyrazole-5-carboxamide] | < 100 | 100 to 1000
CCc1nonc1C(=O)N[C@H](c1cn2nc(C[C@H]3C[C@@H](C(F)(F)F)CNC3=O)c(N3CCOCC3)nc2n1)C1CCCCC1 [Compound 327, N—((S)-cyclohexyl(3-morpholino-2-(((3R,5R)-2-oxo-5-(trifluoromethyl)piperidin-3-yl)methyl)imidazo[1,2-b][1,2,4]triazin-6-yl)methyl)-4-ethyl-1,2,5-oxadiazole-3-carboxamide] | < 100 | > 1000
CCn1nccc1C(=O)N[C@H](c1cn2nc(C[C@@H]3CC(F)(F)CNC3=O)c(C3CCOCC3)nc2n1)C(C1CC1)C1CC1 [Compound 328] | < 100 | 100 to 1000
CCn1nccc1C(=O)N[C@H](c1cn2nc(C[C@H]3C[C@@H](C(F)(F)F)CNC3=O)c(CNCC(F)(F)F)nc2n1)C1CCC(F)(F)CC1 [Compound 331, N—((S)-(4,4-difluorocyclohexyl)(2-(((3R,5R)-2-oxo-5-(trifluoromethyl)piperidin-3-yl)methyl)-3-(((2,2,2-trifluoroethyl)amino)methyl)imidazo[1,2-b][1,2,4]triazin-6-yl)methyl)-1-ethyl-1H-pyrazole-5-carboxamide] | < 100 | 100 to 1000
CCn1nccc1C(=O)N[C@H](c1cn2nc(C[C@H]3C[C@@H](C(F)(F)F)CNC3=O)c(CN3CC(F)(F)C3)nc2n1)C1CCC(F)(F)CC1 [Compound 332, N—((S)-(3-((3,3-difluoroazetidin-1-yl)methyl)-2-(((3R,5R)-2-oxo-5-(trifluoromethyl)piperidin-3-yl)methyl)imidazo[1,2-b][1,2,4]triazin-6-yl)(4,4-difluorocyclohexyl)methyl)-1-ethyl-1H-pyrazole-5-carboxamide] | < 100 | > 1000
CCn1nccc1C(=O)N[C@H](c1cn2nc(C[C@H]3C[C@@H](C(F)(F)F)CNC3=O)c(CN3CCC(F)(F)C3)nc2n1)C1CCC(F)(F)CC1 [Compound 333, N—((S)-(4,4-difluorocyclohexyl)(3-((3,3-difluoropyrrolidin-1-yl)methyl)-2-(((3R,5R)-2-oxo-5-(trifluoromethyl)piperidin-3-yl)methyl)imidazo[1,2-b][1,2,4]triazin-6-yl)methyl)-1-ethyl-1H-pyrazole-5-carboxamide] | < 100 | > 1000
CCn1nccc1C(=O)N[C@H](c1cn2nc(C[C@H]3C[C@@H](C(F)(F)F)CNC3=O)c(Cn3ccnc3)nc2n1)C1CCC(F)(F)CC1 [Compound 334, N—((S)-(3-((1H-imidazol-1-yl)methyl)-2-(((3R,5R)-2-oxo-5-(trifluoromethyl)piperidin-3-yl)methyl)imidazo[1,2-b][1,2,4]triazin-6-yl)(4,4-difluorocyclohexyl)methyl)-1-ethyl-1H-pyrazole-5-carboxamide] | < 100 | 100 to 1000
CCn1nccc1C(=O)N[C@H](c1cn2nc(C[C@H]3C[C@@H](C(F)(F)F)CNC3=O)c(CN(C)CC(F)(F)F)nc2n1)C1CCC(F)(F)CC1 [Compound 335, N—((S)-(4,4-difluorocyclohexyl)(3-((methyl(2,2,2-trifluoroethyl)amino)methyl)-2-(((3R,5R)-2-oxo-5-(trifluoromethyl)piperidin-3-yl)methyl)imidazo[1,2-b][1,2,4]triazin-6-yl)methyl)-1-ethyl-1H-pyrazole-5-carboxamide] | < 100 | 100 to 1000
CCn1nccc1C(=O)N[C@H](c1cn2nc(C[C@H]3C[C@@H](C(F)(F)F)CNC3=O)c(CN3CC(C(F)(F)F)C3)nc2n1)C1CCC(F)(F)CC1 [Compound 336, N—((S)-(4,4-difluorocyclohexyl)(2-(((3R,5R)-2-oxo-5-(trifluoromethyl)piperidin-3-yl)methyl)-3-((3-(trifluoromethyl)azetidin-1-yl)methyl)imidazo[1,2-b][1,2,4]triazin-6-yl)methyl)-1-ethyl-1H-pyrazole-5-carboxamide] | < 100 | 100 to 1000
CCn1nccc1C(=O)N[C@H](c1cn2nc(C[C@H]3C[C@@H](C(F)(F)F)CNC3=O)c(CN3CC(C)(F)C3)nc2n1)C1CCC(F)(F)CC1 [Compound 337, N—((S)-(4,4-difluorocyclohexyl)(3-((3-fluoro-3-methylazetidin-1-yl)methyl)-2-(((3R,5R)-2-oxo-5-(trifluoromethyl)piperidin-3-yl)methyl)imidazo[1,2-b][1,2,4]triazin-6-yl)methyl)-1-ethyl-1H-pyrazole-5-carboxamide] | < 100 | > 1000
CCn1nccc1C(=O)N[C@H](c1cn2nc(C[C@H]3C[C@@H](C(F)(F)F)CNC3=O)c(CN3C(C)CC3C)nc2n1)C1CCC(F)(F)CC1 (stereo partly drawn) [Compound 338, N-((1S)-(4,4-difluorocyclohexyl)(3-((2,4-dimethylazetidin-1-yl)methyl)-2-(((3R,5R)-2-oxo-5-(trifluoromethyl)piperidin-3-yl)methyl)imidazo[1,2-b][1,2,4]triazin-6-yl)methyl)-1-ethyl-1H-pyrazole-5-carboxamide] | < 100 | > 1000
CCn1nccc1C(=O)N[C@H](c1cn2nc(C[C@H]3C[C@@H](C(F)(F)F)CNC3=O)c(CN3CC4(CC4)C3)nc2n1)C1CCC(F)(F)CC1 [Compound 339, N—((S)-(3-((5-azaspiro[2.3]hexan-5-yl)methyl)-2-(((3R,5R)-2-oxo-5-(trifluoromethyl)piperidin-3-yl)methyl)imidazo[1,2-b][1,2,4]triazin-6-yl)(4,4-difluorocyclohexyl)methyl)-1-ethyl-1H-pyrazole-5-carboxamide] | 100 to 1000 | > 1000
CCn1nccc1C(=O)N[C@H](c1cn2nc(C[C@H]3C[C@@H](C(F)(F)F)CNC3=O)c(CN3CC4(C3)CC(F)(F)C4)nc2n1)C1CCC(F)(F)CC1 [Compound 340, N—((S)-(3-((6,6-difluoro-2-azaspiro[3.3]heptan-2-yl)methyl)-2-(((3R,5R)-2-oxo-5-(trifluoromethyl)piperidin-3-yl)methyl)imidazo[1,2-b][1,2,4]triazin-6-yl)(4,4-difluorocyclohexyl)methyl)-1-ethyl-1H-pyrazole-5-carboxamide] | < 100 | > 1000
CCn1nccc1C(=O)N[C@H](c1cn2nc(C[C@H]3C[C@@H](C(F)(F)F)CNC3=O)c(CN3CC4(C3)CC(O)(C(F)(F)F)C4)nc2n1)C1CCC(F)(F)CC1 [Compound 341, N—((S)-(4,4-difluorocyclohexyl)(3-((6-hydroxy-6-(trifluoromethyl)-2-azaspiro[3.3]heptan-2-yl)methyl)-2-(((3R,5R)-2-oxo-5-(trifluoromethyl)piperidin-3-yl)methyl)imidazo[1,2-b][1,2,4]triazin-6-yl)methyl)-1-ethyl-1H-pyrazole-5-carboxamide] | < 100 | > 1000
